In patent US8895282B2, “Use of a substance for manufacturing of a medicament for treatment of common cold” (Tanomed AB, priority 2008, dated 2014):
Several values for one entry are separate records, joined by “and”; a condition that tells them apart may be missing. Equal values may be shown once. Read-outs that look alike come from different tables or passages of the source.

Columns and labels:
Rhinovirus 8 [1] = conditions: for Infection of WI 38 cells after 10 days of inoculation: 10 U GO + 5% glucose added after 2 days
Rhinovirus 7 [2] = conditions: for Day 3 (cytopathic effect of RV 7 on WI 38 cells) / Day 5 (cytopathic effect of RV 7 on WI 38 cells) / Day 7 (cytopathic effect of RV 7 on WI 38 cells): 20 U GO/ml; for Incubation time for inactivation of rhinovirus: glucose oxidase 20 U/ml
Protocol: Virus: Rhinovirus 7, purchased from ATCC (VR-1117), was used as a representative for the rhinovirus group. In the assays the dilutions 10^−2 and 10^−3 were used. […] 0.3 ml of each dilution was added into the vials.
Cell culture: Human lung cell fibroblasts (WI 38, ATCC-CCL-75) was used for cytopathic effect detection. 10-fold serial dilutions had been made from the concentrated viral suspension. […] Then the media was changed to RPMI with 2% of fetal calf serum, which was preserved during the assay. The cells were incubated in CO2enriched air at 37° C. During the experiments a cell culture of 17th-18^thpassage was used.
Catalase: From Sigma-Aldrich™. A solution of 100 000 U/ml was prepared from the original solution of 10^6 U/ml.
H2O2: a 20% solution was diluted in Phosphate buffered saline (PBS) to a 0.5% and a 0.05% solution. 0.1 ml was added to the vials, which means 0.05% or 0.005% in the vials.
A solution of 200 U/ml and 600 U/ml was prepared from the original solution of 6000 U/ml.
In order to evaluate whether the effect of the hydrogen peroxide was a direct effect on the virus itself or a cytoprotective effect, we preincubated the virus with the hydrogen peroxide, before it was transferred to the wells with the cells. The WI 38 cells are also sensitive to hydrogen peroxide, and therefore it was necessary to add catalase before inoculation into the wells. […] This design would also reveal if the inhibitory effect was only a virostatic one, or if it could damage the virions irreversibly.
In table 1 the content of each of the 10 vials (Eppendorf) is listed. The vials were incubated in a heater keeping a stable temperature of 37° C. 1000 U of catalase was added after 15, 30 and 60 min of incubation. 2×50 μl from each vial was transferred to duplicate cell wells (a 96-well plate).

Rhinovirus 8 [3] = system: Rhinovirus 8
Protocol: (§1) Virus concentration=dil 2. Incubation during 30 min in heater keeping 37° C. After 30 min the effect of the hydrogen peroxide is aborted with the addition of 0.1 ml catalase solution into the vial (=1 kU/ml). • 0.7 ml 5% glucose solution+0.1 ml dil 1 of RV7 (=a7) or RV8 (=a8)+0.1 ml of the hydrogen peroxide solution (=final concentration in the vial=[…]). Incubation and abortion of the hydrogen peroxide effect similar as in a).
(§2) Altogether 4 vials (Eppendorff): a7, a8, b7 and b8.
(§3) After the addition of catalase, samples are transferred to a 96-well plate with flat bottom according to table 3.

Rhinovirus 7 [4] = system: Rhinovirus 7
Protocol: as §1, §2, §3

Rhinovirus 7 [5] = conditions: for Infection of WI 38 cells after 10 days of inoculation: 10 U GO + 5% glucose added after 2 days
WI 38 cells = system: WI 38 cells
Protocol: as §1, §3

[6] = Glucose Oxidase added into the wells 2 days after the initial incubation
[7] = RV 7 dil 10^−2, preincubation 15 min
[8] = RV 7 dil 10^−2, preincubation 30 min
[9] = RV 7 dil 10^−2, preincubation 60 min
[10] = RV 7 dil 10^−3, preincubation 15 min
[11] = RV 7 dil 10^−3, preincubation 30 min
[12] = RV 7 dil 10^−3, preincubation 60 min
[13] = 40 U/ml of Glucose Oxidase, high initial inoculate
[14] = 50 μl a8: RV8 dil 2 preincubated 30 min with 40 U/ml Glucose Oxidase, then catalase
[15] = 50 μl a7: RV7 dil 2 preincubated 30 min with 40 U/ml Glucose Oxidase, then catalase

## Glucose oxidase [GO]
Rhinovirus 8 [1]; well E2, 50 μl RV8 dilution 2
  Infection of WI 38 cells after 10 days of inoculation: 2+
Rhinovirus 8 [1]; well E4, 50 μl RV8 dilution 4
  Infection of WI 38 cells after 10 days of inoculation: 0
Rhinovirus 8 [1]; wells D9, C9, 10 μl RV8 dilution 1
  Infection of WI 38 cells after 10 days of inoculation: 2+ and 3+
Rhinovirus 8 [1]; [6]
  Spread of viral infection to other cells: could prevent the spread of viral infection
Rhinovirus 7 [2]
  GO concentration having an effect on the Rhinovirus infection: less than 20 U/ml
  Incubation time for inactivation of rhinovirus: ≤ 30 min
Rhinovirus 7 [2]; [7]
  Day 3 (cytopathic effect of RV 7 on WI 38 cells): −
  Day 5 (cytopathic effect of RV 7 on WI 38 cells): −
  Day 7 (cytopathic effect of RV 7 on WI 38 cells): −
Rhinovirus 7 [2]; [8]
  Day 3 (cytopathic effect of RV 7 on WI 38 cells): −
  Day 5 (cytopathic effect of RV 7 on WI 38 cells): −
  Day 7 (cytopathic effect of RV 7 on WI 38 cells): −
Rhinovirus 7 [2]; [9]
  Day 3 (cytopathic effect of RV 7 on WI 38 cells): −
  Day 5 (cytopathic effect of RV 7 on WI 38 cells): −
  Day 7 (cytopathic effect of RV 7 on WI 38 cells): −
Rhinovirus 7 [2]; [10]
  Day 3 (cytopathic effect of RV 7 on WI 38 cells): −
  Day 5 (cytopathic effect of RV 7 on WI 38 cells): −
  Day 7 (cytopathic effect of RV 7 on WI 38 cells): −
Rhinovirus 7 [2]; [11]
  Day 3 (cytopathic effect of RV 7 on WI 38 cells): −
  Day 5 (cytopathic effect of RV 7 on WI 38 cells): −
  Day 7 (cytopathic effect of RV 7 on WI 38 cells): −
Rhinovirus 7 [2]; [12]
  Day 3 (cytopathic effect of RV 7 on WI 38 cells): −
  Day 5 (cytopathic effect of RV 7 on WI 38 cells): −
  Day 7 (cytopathic effect of RV 7 on WI 38 cells): −
Rhinovirus 7 [2]; 20 U/ml of Glucose Oxidase
  Amount of H2O2 produced by Glucose Oxidase, equivalent: more than 0.005 % H2O2
Rhinovirus 7 [2]; GO less than 20 U/ml
  Hydrogen peroxide concentration corresponding to the effective GO concentration: more than 10 mM
Rhinovirus 7 [2]; Glucose Oxidase or 0.05% hydrogen peroxide solution, 7 days of incubation, no sign of recovery
  Reversibility of the inactivation of RV 7: irreversible
Rhinovirus 7 [2]; WI 38 cells
  Glucose Oxidase concentration sufficient for complete inactivation of RV 7: 20 U/ml
Rhinovirus 7 [2]; after 5 days of incubation, even after only 15 min preincubation and higher RV 7 concentration
  Cytopathic effect in wells where Glucose Oxidase had been incubated with RV 7: no cytopathic effect
Rhinovirus 7 [2]; listed as glucose oxidase
  Incubation time for inactivation of rhinovirus: less than 30 minutes
Rhinovirus 8 [3]; [13]
  Inactivation of RV 8: able to inactivate
Rhinovirus 8 [3]; [14]
  Infection of WI 38 cells after 2 days of inoculation: 0
  Infection of WI 38 cells after 10 days of inoculation: 0
Rhinovirus 7 [4]; [13]
  Inactivation of RV 7: able to inactivate
Rhinovirus 7 [4]; [15]
  Infection of WI 38 cells after 2 days of inoculation: 0
  Infection of WI 38 cells after 10 days of inoculation: 0
Rhinovirus 7 [5]; well E1, 50 μl RV7 dilution 2
  Infection of WI 38 cells after 10 days of inoculation: 2+
Rhinovirus 7 [5]; well E3, 50 μl RV7 dilution 4
  Infection of WI 38 cells after 10 days of inoculation: 0
Rhinovirus 7 [5]; wells F9, E9, 10 μl RV7 dilution 1
  Infection of WI 38 cells after 10 days of inoculation: 1+
Rhinovirus 7 [5]; [6]
  Spread of viral infection to other cells: could prevent the spread of viral infection

B1: Catalase: specific enzyme catalyzing the conversion of H2O2 into O2 and H2O; purified from human erythrocytes (protein, UniProt P04040 2-527, looked up)
Catalase: ADSRDPASDQMQHWKEQRAAQKADVLTTGAGNPVGDKLNVITVGPRGPLLVQDVVFTDEMAHFDRERIPERVVHAKGAGAFGYFEVTHDITKYSKAKVFEHIGKKTPIAVRFSTVAGESGSADTVRDPRGFAVKFYTEDGNWDLVGNNTPIFFIRDPILFPSFIHSQKRNPQTHLKDPDMVWDFWSLRPESLHQVSFLFSDRGIPDGHRHMNGYGSHTFKLVNANGEAVYCKFHYKTDQGIKNLSVEDAARLSQEDPDYGIRDLFNAIATGKYPSWTFYIQVMTFNQAETFPFNPFDLTKVWPHKDYPLIPVGKLVLNRNPVNYFAEVEQIAFDPSNMPPGIEASPDKMLQGRLFAYPDTHRHRLGPNYLHIPVNCPYRARVANYQRDGPMCMQDNQGGAPNYYPNSFGAPEQQPSALEHSIQYSGEVRRFNTANDDNVTQVRAFYVNVLNEEQRKRLCENIAGHLKDAQIFIQKKAVKNFTEVHPDYGSHIQALLDKYNAEKPKNAIHTFVQSGSHLAAREKANL
WI 38 cells
  Effect on WI 38 cells after 2 days: 0
  Effect on WI 38 cells after 10 days: 0
